Entries after “also recorded” stand apart in the source; their conditions may differ.

By inhibition is commonly meant how much of the control response was suppressed.

One test has as its target T1, Recombinant human SphK2 (Homo sapiens, UniProt Q9NRA0).
T1 sequence (Q9NRA0 1-654): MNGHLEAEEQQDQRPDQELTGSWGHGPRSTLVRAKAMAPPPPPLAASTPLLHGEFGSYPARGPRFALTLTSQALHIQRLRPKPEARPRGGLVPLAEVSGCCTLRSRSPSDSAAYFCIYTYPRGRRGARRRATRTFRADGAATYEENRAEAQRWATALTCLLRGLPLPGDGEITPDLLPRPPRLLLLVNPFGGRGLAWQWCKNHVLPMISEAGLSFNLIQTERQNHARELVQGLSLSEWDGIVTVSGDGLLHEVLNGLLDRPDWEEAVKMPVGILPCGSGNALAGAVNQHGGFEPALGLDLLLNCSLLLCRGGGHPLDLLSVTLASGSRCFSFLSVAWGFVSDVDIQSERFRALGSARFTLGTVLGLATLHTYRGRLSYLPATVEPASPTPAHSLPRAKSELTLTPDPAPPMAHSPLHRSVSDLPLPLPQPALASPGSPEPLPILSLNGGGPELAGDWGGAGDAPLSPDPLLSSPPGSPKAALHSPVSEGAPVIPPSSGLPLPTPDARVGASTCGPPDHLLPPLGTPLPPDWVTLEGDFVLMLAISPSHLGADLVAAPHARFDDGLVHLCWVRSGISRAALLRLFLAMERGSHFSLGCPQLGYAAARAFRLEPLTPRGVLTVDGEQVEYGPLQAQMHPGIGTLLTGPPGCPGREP
Description: Recombinant hSphK2 cell lysate assay. Format: biochemical. The conditions noted are these: compound 0.3 μM.
For the molecule `CCCCCCCOc1ccc(CN2CCC[C@@H]2CO)cc1.Cl` [12a, (R)-(1-(4-(heptyloxy)benzyl)pyrrolidin-2-yl)methanol], the “SphK2 inhibition, in words” value was “poor SphK1 and 2 inhibition”.
Same read-out and setting: for `Cl.OC[C@H]1CCCN1Cc1ccc(OCc2ccc(C(F)(F)F)cc2)cc1` [12e, (R)-(1-(4-((4-(trifluoromethyl)benzyl)oxy)benzyl)pyrrolidin-2-yl)methanol] the value was “weak SphK inhibition”; for `Cl.OC[C@H]1CCCN1Cc1ccc(Oc2ccccc2)cc1` [18a, (R)-(1-(4-phenoxybenzyl)pyrrolidin-2-yl)methanol], “poor SphK1 and 2 inhibition”.
On the same count and under the same terms, for `CC(C)(C)c1cccc(Oc2ccc(CN3CCC[C@@H]3CO)cc2)c1.Cl` [18b, (R)-(1-(4-(3-(tert-butyl)phenoxy)benzyl)pyrrolidin-2-yl)methanol] the value was “minimal enzyme inhibition”; for `Cl.OC[C@H]1CCCN1Cc1ccc(Oc2cccc(-c3ccccc3)c2)cc1` [18d, (R)-(1-(4-([1,1′-biphenyl]-3-yloxy)benzyl)pyrrolidin-2-yl)methanol], “minimal enzyme inhibition”.
On to `CCCCCCCCCCc1ccc(CN2CCC[C@@H]2CO)cc1.Cl` [22b, (R)-(1-(4-decylbenzyl)pyrrolidin-2-yl)methanol], for which the “SphK2 inhibition, in words” value was “strong inhibitory activity”.
Same read-out and setting: for `CCCCCCCCCCCCc1ccc(CN2CCC[C@@H]2CO)cc1.Cl` [22d, (R)-(1-(4-dodecylbenzyl)pyrrolidin-2-yl)methanol] the value was “strong inhibitory activity”.

The test is the same for the next values; noted with them: read-out: % SphK2 Inhibition.
On to `Cc1ccc(CCc2ccc(CN3CCC[C@@H]3CO)cc2)cc1` [22f, (R)-(1-(4-(4-methylphenethyl)benzyl)pyrrolidin-2-yl)methanol], for which the inhibition at 0.3 µM is 3 ± 5%.
On the same count and under the same terms, for `COc1ccc(CCc2ccc(CN3CCC[C@@H]3CO)cc2)cc1` [22g, (R)-(1-(4-(4-methoxyphenethyl)benzyl)pyrrolidin-2-yl)methanol] the value was 2 ± 2%.
On the same count and under the same terms, for `CCCCCCCCCCCc1ccc(CN2CCC[C@@H]2COC(C)=O)cc1` [22h, (R)-(1-(4-undecylbenzyl)pyrrolidin-2-yl)methyl acetate] the value was 26 ± 6%; for `Cc1cc(/C=C/c2ccc(C(C)(C)C)cc2)ccc1CN1CCC[C@@H]1CO` [25a, (R,E)-(1-(4-(4-(tert-butyl)styryl)-2-methylbenzyl)pyrrolidin-2-yl)methanol], 0%; for `OC[C@H]1CCCN1Cc1ccc(/C=C/c2cccc(C(F)(F)F)c2)cc1` [25b, (R,E)-(1-(4-(3-(trifluoromethyl)styryl)benzyl)pyrrolidin-2-yl) methanol], 13 ± 5%.
Still for that read-out and setting: for `CCCc1ccc(CCc2ccc(CN3CCC[C@@H]3CO)cc2)cc1` [29a, (R)-(1-(4-(4-propylphenethyl)benzyl)pyrrolidin-2-yl)methanol] the value was 3 ± 4%; for `CCCCCc1ccc(CCc2ccc(CN3CCC[C@@H]3CO)cc2)cc1` [29c, (R)-(1-(4-(4-pentylphenethyl)benzyl)pyrrolidin-2-yl)methanol], 15 ± 5%.

For a further test, the system named is U937 cells. Description: U937 cell culture assay, S1P levels by LC-MS/MS. The following applies: 0.1 μM to 1.0 μM, 2.0 h incubation.
For the molecule `CCCCCCCCCCCCc1ccc(CN2CCC[C@@H]2CO)cc1.Cl` [22d, (R)-(1-(4-dodecylbenzyl)pyrrolidin-2-yl)methanol], the “S1P levels in U937 cells” value was “decreased S1P levels; also recorded: concentration-dependent reduction of S1P levels”.

The target in another test is T2, Recombinant human SphK1 (Homo sapiens, UniProt Q9NYA1). As to the kind of experiment: biochemical. The following applies: read-out: % SphK1 Inhibition.
T2 sequence (Q9NYA1 whole entry): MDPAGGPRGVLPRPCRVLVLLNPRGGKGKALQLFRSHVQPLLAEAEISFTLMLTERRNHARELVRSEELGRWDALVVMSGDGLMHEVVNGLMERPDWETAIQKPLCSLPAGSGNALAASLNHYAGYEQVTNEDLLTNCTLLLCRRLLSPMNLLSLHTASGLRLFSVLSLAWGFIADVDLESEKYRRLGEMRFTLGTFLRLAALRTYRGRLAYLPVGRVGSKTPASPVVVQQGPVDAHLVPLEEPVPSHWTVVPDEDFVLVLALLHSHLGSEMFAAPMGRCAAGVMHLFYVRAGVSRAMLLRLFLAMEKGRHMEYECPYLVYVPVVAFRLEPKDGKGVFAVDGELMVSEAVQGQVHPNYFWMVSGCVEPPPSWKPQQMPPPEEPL
In the case of `Cc1ccc(CCc2ccc(CN3CCC[C@@H]3CO)cc2)cc1` [22f, (R)-(1-(4-(4-methylphenethyl)benzyl)pyrrolidin-2-yl)methanol], the inhibition at 1 µM was 4 ± 4%.
As to `COc1ccc(CCc2ccc(CN3CCC[C@@H]3CO)cc2)cc1` [22g, (R)-(1-(4-(4-methoxyphenethyl)benzyl)pyrrolidin-2-yl)methanol], the inhibition at 1 µM was 8 ± 7%.
Take `CCCCCCCCCCCc1ccc(CN2CCC[C@@H]2COC(C)=O)cc1` [22h, (R)-(1-(4-undecylbenzyl)pyrrolidin-2-yl)methyl acetate]: the inhibition at 1 µM was 47 ± 6%.
Still for that read-out and setting: for `Cc1cc(/C=C/c2ccc(C(C)(C)C)cc2)ccc1CN1CCC[C@@H]1CO` [25a, (R,E)-(1-(4-(4-(tert-butyl)styryl)-2-methylbenzyl)pyrrolidin-2-yl)methanol] the value was 23 ± 3%; for `OC[C@H]1CCCN1Cc1ccc(/C=C/c2cccc(C(F)(F)F)c2)cc1` [25b, (R,E)-(1-(4-(3-(trifluoromethyl)styryl)benzyl)pyrrolidin-2-yl) methanol], 45 ± 1%.
The same measure, in the same setting: for `CCCc1ccc(CCc2ccc(CN3CCC[C@@H]3CO)cc2)cc1` [29a, (R)-(1-(4-(4-propylphenethyl)benzyl)pyrrolidin-2-yl)methanol] the value was 29 ± 8%.
Still for that read-out and setting: for `CCCCc1ccc(CCc2ccc(CN3CCC[C@@H]3CO)cc2)cc1` [29b, (R)-(1-(4-(4-butylphenethyl)benzyl)pyrrolidin-2-yl)methanol] the value was 31 ± 4%.
Regarding `CCCCCc1ccc(CCc2ccc(CN3CCC[C@@H]3CO)cc2)cc1` [29c, (R)-(1-(4-(4-pentylphenethyl)benzyl)pyrrolidin-2-yl)methanol], the inhibition at 1 µM was 36 ± 3%.

For a further test, the target named is T2, Recombinant human SphK1.
Experiment: not given
The conditions noted are these: compound 1.0 μM.
For `CCCCCCCOc1ccc(CN2CCC[C@@H]2CO)cc1.Cl` [12a, (R)-(1-(4-(heptyloxy)benzyl)pyrrolidin-2-yl)methanol], the “SphK1 inhibition, in words” value is “poor SphK1 and 2 inhibition”.
Regarding `Cl.OC[C@H]1CCCN1Cc1ccc(OCc2ccc(C(F)(F)F)cc2)cc1` [12e, (R)-(1-(4-((4-(trifluoromethyl)benzyl)oxy)benzyl)pyrrolidin-2-yl)methanol], the “SphK1 inhibition, in words” value is given as “weak SphK inhibition”.
On to `Cl.OC[C@H]1CCCN1Cc1ccc(Oc2ccccc2)cc1` [18a, (R)-(1-(4-phenoxybenzyl)pyrrolidin-2-yl)methanol], for which the “SphK1 inhibition, in words” value is “poor SphK1 and 2 inhibition”.
For `CC(C)(C)c1cccc(Oc2ccc(CN3CCC[C@@H]3CO)cc2)c1.Cl` [18b, (R)-(1-(4-(3-(tert-butyl)phenoxy)benzyl)pyrrolidin-2-yl)methanol], the “SphK1 inhibition, in words” value is reported as “minimal enzyme inhibition”.
`Cl.OC[C@H]1CCCN1Cc1ccc(Oc2cccc(-c3ccccc3)c2)cc1` [18d, (R)-(1-(4-([1,1′-biphenyl]-3-yloxy)benzyl)pyrrolidin-2-yl)methanol]: the “SphK1 inhibition, in words” value is on record as “minimal enzyme inhibition”.

These data come from article PMC8862572 (Bioorganic & medicinal chemistry, 2020).
